# In patent US20190209569A1, “PHARMACEUTICAL COMPOSITION FOR SUPPRESSING APPETITE, CONTAINING N2-(M-TRIFLUOROBENZYL), N6-(P-NITROBENZYL)PURINE (TNP) OR PHARMACEUTICALLY ACCEPTABLE SALT THEREOF AS ACTIVE INGREDIENT” (priority 2016, published 2019):
# Assays:
# food intake = assay: Effect of single administration of TNP in the third ventricle on food intake; assay type: in vivo, mouse
# Protocol: (§1) Adult male C57BL/6 mice were purchased from Orient Bio (Gyeonggi-do, Korea) and the mice were allowed to take the standard diet (Agri Purina, Seoul, Korea) freely. The mice were raised in the controlled condition (temperature: 22±1° C., light/dark cycle: 12/12 hr (light condition: 8:00 am˜8:00 pm)). A cannula was intubated in the third ventricle of the mouse for the administration of TNP. For the cannulation, the mouse was anesthetized with a mixture of Zoletil and Rumpun (2:1 v/v, 10 μl/g weight) and then a permanent 26-gauge stainless steel cannula was inserted in the third ventricle of the mouse. The insertion position of the cannula was 1.8 mm back from the bregma and 5.0 mm down from the sagittal sinus. The exact cannulation site was confirmed by the positive dipsogenic response after the administration of angiotensin II (50 ng). Only those mice that were confirmed to have cannulae in the correct location were used for data analysis. After the 7 day recovery period, the mice were massaged every day for 1 week in order to minimize the stress response to the experiment.
# The mice cannulated in Example 1 were fasted for 18 hours and then administered at different concentrations of TNP (0.4 pg, 0.04 ng, and 0.4 ng; Calbiochem) in the early light phase (9:00 am˜11:00 am). Before the administration, TNP was dissolved in 0.9% saline. 2 μl of the TNP dissolved in saline at different concentrations (0.4 pg, 0.04 ng, and 0.4 ng) was administered via the cannula into the third ventricle. For the control, the same amount of saline was administered.
# 5 mice treated with saline, 5 mice treated with 0.4 pg of TNP, 5 mice treated with 0.04 ng of TNP, and 4 mice treated with 0.4 ng of TNP were fasted for 18 hours as described in Example 2. TNP was administered once into the third ventricle of the mice. Then, the mice were allowed to take food freely and the food intake was measured for 24 hours.
# All experimental values of the present invention were expressed as mean±standard error ([…]). Statistical analysis was performed by Student's t-test. […]
# weight gaining = assay: Effect of single administration of TNP in the third ventricle on weight control; assay type: in vivo, mouse; conditions: mice fasted for 18 hours; single administration of 0.4 pg, 0.04 ng or 0.4 ng into the third ventricle; observed for 24 hours; FIG. 2
# Protocol: as §1
# The mice cannulated in Example 1 were fasted for 18 hours and then administered at different concentrations of TNP (0.4 pg, 0.04 ng, and 0.4 ng; Calbiochem) in the early light phase (9:00 am˜11:00 am). Before the administration, TNP was dissolved in 0.9% saline. […]
# [1] = single administration into the third ventricle, 0.4 pg, 0.04 ng, 0.4 ng, vs saline
structure (smiles),measurement,setting,value
"O=[N+]([O-])c1ccc(CNc2nc(NCc3cccc(C(F)(F)F)c3)nc3[nH]cnc23)cc1 [TNP, N2-(m-Trifluorobenzyl), N6-(p-nitrobenzyl)purine]",food intake compared to the mice administered with saline,"food intake; male C57BL/6 mice fasted for 18 hours, single administration of 0.4 pg, 0.04 ng or 0.4 ng into the third ventricle, food intake measured for 24 hours, FIG. 1",significantly reduced
same,time after administration at which the food intake reduction effect was still maintained,food intake; [1],≥ 24 h
same,time after administration from which the food intake reduction effect was significant,food intake; [1],2 h
same,weight gaining compared to the control mice treated with saline,weight gaining,significantly suppressed
